Earlier results in patent publication US20090269400A1, “Nanoparticulate and Controlled Release Compositions Comprising a Cephalosporin” (ELAN PHARMA INTERNATIONAL LIMITED, priority 2005, published 2009).
Read-outs that look alike come from different tables or passages of the source.

Settings: stated in words in background/summary, no method given

solubility in water	solubility in water (listed as cefpodoxime proxetil)	SMILES
practically insoluble in water	only slightly soluble in water	COCC1=C(C(=O)OC(C)OC(=O)OC(C)C)N2C(=O)[C@@H](NC(=O)/C(=N\OC)c3csc(N)n3)[C@H]2SC1 (mixture of isomers) [Cefpodoxime proxetil, (RS)-1(isopropoxycarbonyloxy)ethyl (+)-(6R,7R)-7-[2-(2-amino-4-thiazolyl)-2-{(Z)methoxyimino}acetamido]-3-methoxymethyl-8-oxo-5-thia-1-azabicyclo [4.2.0]oct-2-ene-2-carboxylate]
practically insoluble in water	–	COCC1=C(C(=O)O)N2C(=O)[C@@H](NC(=O)/C(=N\OC)c3csc(N)n3)[C@H]2SC1 [cefpodoxime]
